Laboratory results taken from the kinase profiling compilation of Christmann-Franck et al. (2016).

Experiments:
AURKB (human) = AURKB (human) (UniProt Q96GD4)
CAMKK2 (human) = CAMKK2 (human) (UniProt Q96RR4)
CHEK1 (human) = CHEK1 (human) (UniProt O14757)
CSK (human) = CSK (human) (UniProt P41240)
CSNK2A1 (human) = CSNK2A1 (human) (UniProt P68400)
CaMK1 (human) = CaMK1 (human) (UniProt Q14012)
EEF2K (human) = EEF2K (human) (UniProt O00418)
MAPK12 (human) = MAPK12 (human) (UniProt P53778)
MAPK13 (human) = MAPK13 (human) (UniProt O15264)
MAPKAPK2 (human) = MAPKAPK2 (human) (UniProt P49137)
PAK4 (human) = PAK4 (human) (UniProt O96013)
PAK6 (human) = PAK6 (human) (UniProt Q9NQU5)
PIM2 (human) = PIM2 (human) (UniProt Q9P1W9)
PIM2 (human), sequence (Q9P1W9 whole entry, looked up): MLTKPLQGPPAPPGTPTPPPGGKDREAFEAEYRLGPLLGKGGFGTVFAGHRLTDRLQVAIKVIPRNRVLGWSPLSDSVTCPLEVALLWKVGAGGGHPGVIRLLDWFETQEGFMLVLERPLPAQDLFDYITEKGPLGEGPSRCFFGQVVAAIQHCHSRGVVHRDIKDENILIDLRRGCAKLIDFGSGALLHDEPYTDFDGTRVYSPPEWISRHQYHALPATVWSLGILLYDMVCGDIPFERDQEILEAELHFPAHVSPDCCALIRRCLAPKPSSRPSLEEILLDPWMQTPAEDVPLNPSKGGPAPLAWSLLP

PLK1 (human) = PLK1 (human) (UniProt P53350)
PRKCA (human) = PRKCA (human) (UniProt P17252)
PRKCZ (human) = PRKCZ (human) (UniProt Q05513)
ROCK2 (rat) = conditions: accession and sequence are those of the human protein
RPS6KA1 KD1 KD2 (human) = RPS6KA1 KD1 KD2 (human) (UniProt Q15418)
RPS6KA1 KD1 KD2 (human), sequence (Q15418 whole entry, looked up): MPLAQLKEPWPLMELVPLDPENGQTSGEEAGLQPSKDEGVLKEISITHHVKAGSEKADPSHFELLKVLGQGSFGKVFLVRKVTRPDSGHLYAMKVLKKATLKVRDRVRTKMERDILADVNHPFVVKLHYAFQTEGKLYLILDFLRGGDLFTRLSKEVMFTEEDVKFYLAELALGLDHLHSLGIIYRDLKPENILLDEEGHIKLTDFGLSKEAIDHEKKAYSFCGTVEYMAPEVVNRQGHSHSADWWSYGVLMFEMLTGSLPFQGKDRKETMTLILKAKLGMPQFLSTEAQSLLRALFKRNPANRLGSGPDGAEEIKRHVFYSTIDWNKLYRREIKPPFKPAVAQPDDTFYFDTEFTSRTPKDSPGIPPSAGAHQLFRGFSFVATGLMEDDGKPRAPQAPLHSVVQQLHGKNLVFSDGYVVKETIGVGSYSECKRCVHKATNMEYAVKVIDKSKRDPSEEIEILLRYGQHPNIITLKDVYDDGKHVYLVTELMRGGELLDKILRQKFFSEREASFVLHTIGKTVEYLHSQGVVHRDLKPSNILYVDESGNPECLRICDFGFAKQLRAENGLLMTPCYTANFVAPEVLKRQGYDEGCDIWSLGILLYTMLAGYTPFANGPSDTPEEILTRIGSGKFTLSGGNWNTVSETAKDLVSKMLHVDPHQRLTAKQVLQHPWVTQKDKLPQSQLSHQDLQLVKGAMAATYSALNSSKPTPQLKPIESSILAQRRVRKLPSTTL

[1] = tested on: RPS6KB1 (human), P23443 [T412E]
[2] = tested on: SGK1 (human), O00141 [S422D]
SGK1 (human), O00141 [S422D], sequence (O00141 whole entry S422D, looked up): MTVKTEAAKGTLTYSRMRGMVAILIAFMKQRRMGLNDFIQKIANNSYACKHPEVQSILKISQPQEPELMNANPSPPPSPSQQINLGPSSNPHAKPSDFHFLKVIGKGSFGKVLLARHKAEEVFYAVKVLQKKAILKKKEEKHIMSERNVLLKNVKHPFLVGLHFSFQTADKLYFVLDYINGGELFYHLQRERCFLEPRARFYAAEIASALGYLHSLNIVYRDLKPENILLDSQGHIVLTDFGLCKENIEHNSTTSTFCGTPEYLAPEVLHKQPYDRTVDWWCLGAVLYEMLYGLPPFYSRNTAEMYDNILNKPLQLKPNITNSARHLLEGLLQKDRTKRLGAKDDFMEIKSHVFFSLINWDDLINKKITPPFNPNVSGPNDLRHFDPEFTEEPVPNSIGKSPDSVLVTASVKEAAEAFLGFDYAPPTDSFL

SRPK1 (human) = SRPK1 (human) (UniProt Q96SB4)
SRPK1 (human), sequence (Q96SB4 whole entry, looked up): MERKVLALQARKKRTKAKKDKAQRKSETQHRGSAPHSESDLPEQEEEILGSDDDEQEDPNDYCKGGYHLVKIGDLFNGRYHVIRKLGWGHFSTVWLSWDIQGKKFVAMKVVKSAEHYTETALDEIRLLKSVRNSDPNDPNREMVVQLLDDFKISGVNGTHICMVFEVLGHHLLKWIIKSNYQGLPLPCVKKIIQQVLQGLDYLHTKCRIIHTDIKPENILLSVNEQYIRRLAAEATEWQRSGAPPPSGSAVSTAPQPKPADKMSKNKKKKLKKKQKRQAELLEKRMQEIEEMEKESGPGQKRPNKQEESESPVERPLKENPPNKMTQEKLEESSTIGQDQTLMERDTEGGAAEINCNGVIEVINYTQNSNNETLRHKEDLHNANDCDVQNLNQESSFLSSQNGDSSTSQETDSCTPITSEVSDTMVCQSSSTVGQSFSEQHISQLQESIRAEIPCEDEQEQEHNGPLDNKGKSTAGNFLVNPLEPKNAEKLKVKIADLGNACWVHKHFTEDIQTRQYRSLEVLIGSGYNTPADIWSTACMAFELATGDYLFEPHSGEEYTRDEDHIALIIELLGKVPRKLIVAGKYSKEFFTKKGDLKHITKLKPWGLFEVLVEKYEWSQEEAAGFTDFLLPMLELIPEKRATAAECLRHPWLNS

STK3 (human) = STK3 (human) (UniProt Q13188)
YES1 (human) = YES1 (human) (UniProt P07947)
YES1 (human), sequence (P07947 whole entry, looked up): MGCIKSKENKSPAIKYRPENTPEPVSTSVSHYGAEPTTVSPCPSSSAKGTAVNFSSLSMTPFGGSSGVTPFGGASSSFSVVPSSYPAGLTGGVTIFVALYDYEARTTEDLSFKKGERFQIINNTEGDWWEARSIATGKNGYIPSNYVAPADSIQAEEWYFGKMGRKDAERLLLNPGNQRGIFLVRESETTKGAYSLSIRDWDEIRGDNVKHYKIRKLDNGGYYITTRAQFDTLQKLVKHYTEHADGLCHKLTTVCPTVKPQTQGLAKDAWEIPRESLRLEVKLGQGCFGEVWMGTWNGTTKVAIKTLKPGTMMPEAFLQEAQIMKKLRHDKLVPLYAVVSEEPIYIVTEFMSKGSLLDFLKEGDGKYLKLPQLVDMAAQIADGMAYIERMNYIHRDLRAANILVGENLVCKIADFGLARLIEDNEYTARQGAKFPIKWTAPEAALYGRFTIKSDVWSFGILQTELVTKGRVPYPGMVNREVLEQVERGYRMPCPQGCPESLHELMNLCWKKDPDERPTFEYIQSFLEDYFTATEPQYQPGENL

DDR2 (human) = DDR2 (human) (UniProt Q16832); assay: KINOMEscan competition binding; conditions: compound 10.0 µM
DYRK1B (human) = DYRK1B (human) (UniProt Q9Y463); assay: KINOMEscan competition binding; conditions: compound 10.0 µM
[3] = tested on: EGFR (human), P00533 [T790M]; assay: KINOMEscan competition binding; conditions: compound 10.0 µM
EPHA4 (human) = EPHA4 (human) (UniProt P54764); assay: KINOMEscan competition binding; conditions: compound 10.0 µM
FRK (human) = FRK (human) (UniProt P42685); assay: KINOMEscan competition binding; conditions: compound 10.0 µM
HIPK3 (human) = HIPK3 (human) (UniProt Q9H422); assay: KINOMEscan competition binding; conditions: compound 10.0 µM
PKMYT1 (human) = PKMYT1 (human) (UniProt Q99640); assay: KINOMEscan competition binding; conditions: compound 10.0 µM
RIPK2 (human) = RIPK2 (human) (UniProt O43353); assay: KINOMEscan competition binding; conditions: compound 10.0 µM
PI4KA (human) = PI4KA (human) (UniProt P42356)
PI4KB (human) = PI4KB (human) (UniProt Q9UBF8)
PIK3C2A (human) = PIK3C2A (human) (UniProt O00443)
PIK3C2B (human) = PIK3C2B (human) (UniProt O00750)
PIK3C3 (human) = PIK3C3 (human) (UniProt Q8NEB9)

AURKB (human), sequence (Q96GD4 whole entry, looked up): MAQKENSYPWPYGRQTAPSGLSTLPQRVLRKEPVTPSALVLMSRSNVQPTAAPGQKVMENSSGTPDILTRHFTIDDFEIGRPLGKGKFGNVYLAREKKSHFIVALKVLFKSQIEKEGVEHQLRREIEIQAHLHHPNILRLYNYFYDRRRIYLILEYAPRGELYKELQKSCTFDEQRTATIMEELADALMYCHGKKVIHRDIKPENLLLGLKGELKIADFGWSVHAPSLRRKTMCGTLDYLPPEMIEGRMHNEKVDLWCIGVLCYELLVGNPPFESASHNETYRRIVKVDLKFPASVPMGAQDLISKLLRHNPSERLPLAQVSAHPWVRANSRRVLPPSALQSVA
CAMKK2 (human), sequence (Q96RR4 whole entry, looked up): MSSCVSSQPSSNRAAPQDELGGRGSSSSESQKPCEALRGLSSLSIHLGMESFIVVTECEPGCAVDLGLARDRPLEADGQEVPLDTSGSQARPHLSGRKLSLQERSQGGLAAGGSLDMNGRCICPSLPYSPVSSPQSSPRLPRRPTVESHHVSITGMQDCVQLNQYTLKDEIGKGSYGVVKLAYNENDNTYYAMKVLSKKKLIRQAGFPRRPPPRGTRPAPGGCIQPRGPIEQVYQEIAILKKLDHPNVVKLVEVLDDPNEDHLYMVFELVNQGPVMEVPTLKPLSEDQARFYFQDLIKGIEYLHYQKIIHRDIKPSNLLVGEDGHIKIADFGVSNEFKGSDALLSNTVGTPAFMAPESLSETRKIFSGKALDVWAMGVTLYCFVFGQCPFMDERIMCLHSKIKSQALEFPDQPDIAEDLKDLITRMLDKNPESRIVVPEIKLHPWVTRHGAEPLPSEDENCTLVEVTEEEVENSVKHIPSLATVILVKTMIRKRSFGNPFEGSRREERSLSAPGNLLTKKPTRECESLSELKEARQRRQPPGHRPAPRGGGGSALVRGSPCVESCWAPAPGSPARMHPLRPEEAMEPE
EEF2K (human), sequence (O00418 whole entry, looked up): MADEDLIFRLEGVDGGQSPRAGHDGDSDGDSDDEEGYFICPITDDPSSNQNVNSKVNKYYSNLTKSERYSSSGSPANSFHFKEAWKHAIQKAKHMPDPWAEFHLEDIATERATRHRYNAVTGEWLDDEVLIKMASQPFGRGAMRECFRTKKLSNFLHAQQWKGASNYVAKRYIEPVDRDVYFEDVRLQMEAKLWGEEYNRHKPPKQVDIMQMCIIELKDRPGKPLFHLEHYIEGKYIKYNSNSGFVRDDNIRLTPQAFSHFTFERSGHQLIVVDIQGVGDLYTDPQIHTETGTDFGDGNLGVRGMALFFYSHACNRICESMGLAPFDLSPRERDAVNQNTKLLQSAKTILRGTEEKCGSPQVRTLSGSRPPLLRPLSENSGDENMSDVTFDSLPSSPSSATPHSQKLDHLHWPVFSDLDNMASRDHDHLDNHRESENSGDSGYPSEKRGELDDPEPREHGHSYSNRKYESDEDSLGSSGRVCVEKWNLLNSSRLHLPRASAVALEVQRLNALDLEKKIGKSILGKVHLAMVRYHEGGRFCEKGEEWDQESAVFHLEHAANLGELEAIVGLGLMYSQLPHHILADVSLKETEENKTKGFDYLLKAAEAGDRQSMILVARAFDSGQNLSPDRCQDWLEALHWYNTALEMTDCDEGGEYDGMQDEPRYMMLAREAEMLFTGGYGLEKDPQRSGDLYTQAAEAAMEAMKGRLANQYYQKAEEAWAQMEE

CCC(=O)N1CCN(c2ccc(-n3c(=O)ccc4cnc5ccc(-c6cnc7ccccc7c6)cc5c43)cc2C(F)(F)F)CC1
per cent of control (AURKB (human); compound 1.0 µM): 107%
per cent of control (AURKB (human); compound 10.0 µM): 90%
per cent of control (CAMKK2 (human); compound 1.0 µM): 95%
per cent of control (CAMKK2 (human); compound 10.0 µM): 81%
per cent of control (CHEK1 (human); compound 1.0 µM): 106%
per cent of control (CHEK1 (human); compound 10.0 µM): 125%
per cent of control (CSK (human); compound 1.0 µM): 101%
per cent of control (CSK (human); compound 10.0 µM): 83%
per cent of control (CSNK2A1 (human); compound 10.0 µM): 95%
per cent of control (CaMK1 (human); compound 1.0 µM): 104%
per cent of control (CaMK1 (human); compound 10.0 µM): 77%
per cent of control (EEF2K (human); compound 1.0 µM): 118%
per cent of control (EEF2K (human); compound 10.0 µM): 111%
per cent of control (MAPK12 (human); compound 1.0 µM): 103%
per cent of control (MAPK12 (human); compound 10.0 µM): 129%
per cent of control (MAPK13 (human); compound 1.0 µM): 106%
per cent of control (MAPK13 (human); compound 10.0 µM): 97%
per cent of control (MAPKAPK2 (human); compound 1.0 µM): 102%
per cent of control (MAPKAPK2 (human); compound 10.0 µM): 108%
per cent of control (PAK4 (human); compound 1.0 µM): 110%
per cent of control (PAK4 (human); compound 10.0 µM): 66%
per cent of control (PAK6 (human); compound 1.0 µM): 110%
per cent of control (PAK6 (human); compound 10.0 µM): 80%
per cent of control (PIM2 (human); compound 1.0 µM): 86%
per cent of control (PIM2 (human); compound 10.0 µM): 96%
per cent of control (PLK1 (human); compound 1.0 µM): 94%
per cent of control (PLK1 (human); compound 10.0 µM): 84%
per cent of control (PRKCA (human); compound 1.0 µM): 83%
per cent of control (PRKCA (human); compound 10.0 µM): 68%
per cent of control (PRKCZ (human); compound 1.0 µM): 121%
per cent of control (PRKCZ (human); compound 10.0 µM): 106%
per cent of control (ROCK2 (rat); compound 1.0 µM): 96%
per cent of control (ROCK2 (rat); compound 10.0 µM): 101%
per cent of control (RPS6KA1 KD1 KD2 (human); compound 1.0 µM): 93%
per cent of control (RPS6KA1 KD1 KD2 (human); compound 10.0 µM): 71%
per cent of control ([1]; compound 1.0 µM): 97%
per cent of control ([1]; compound 10.0 µM): 81%
per cent of control ([2]; compound 1.0 µM): 79%
per cent of control ([2]; compound 10.0 µM): 60%
per cent of control (SRPK1 (human); compound 1.0 µM): 107%
per cent of control (SRPK1 (human); compound 10.0 µM): 110%
per cent of control (STK3 (human); compound 1.0 µM): 97%
per cent of control (STK3 (human); compound 10.0 µM): 79%
per cent of control (YES1 (human); compound 1.0 µM): 113%
per cent of control (YES1 (human); compound 10.0 µM): 78%
kinase still bound, per cent of control (DDR2 (human)): 100%
kinase still bound, per cent of control (DYRK1B (human)): 87%
kinase still bound, per cent of control [3]: 100%
kinase still bound, per cent of control (EPHA4 (human)): 90%
kinase still bound, per cent of control (FRK (human)): 60%
kinase still bound, per cent of control (HIPK3 (human)): 86%
kinase still bound, per cent of control (PKMYT1 (human)): 52%
kinase still bound, per cent of control (RIPK2 (human)): 44%
IC50 (PI4KA (human)): > 10 µM

CC(C)n1nc(-c2cc3cc(O)ccc3[nH]2)c2c(N)ncnc21
per cent of control (AURKB (human); compound 1.0 µM): 78%
per cent of control (AURKB (human); compound 10.0 µM): 27%
per cent of control (CAMKK2 (human); compound 1.0 µM): 72%
per cent of control (CAMKK2 (human); compound 10.0 µM): 30%
per cent of control (CHEK1 (human); compound 1.0 µM): 91%
per cent of control (CHEK1 (human); compound 10.0 µM): 34%
per cent of control (CSK (human); compound 1.0 µM): 52%
per cent of control (CSK (human); compound 10.0 µM): 34%
per cent of control (CSNK2A1 (human); compound 1.0 µM): 72%
per cent of control (CSNK2A1 (human); compound 10.0 µM): 40%
per cent of control (CaMK1 (human); compound 1.0 µM): 80%
per cent of control (CaMK1 (human); compound 10.0 µM): 33%
per cent of control (EEF2K (human); compound 1.0 µM): 115%
per cent of control (EEF2K (human); compound 10.0 µM): 106%
per cent of control (MAPK12 (human); compound 1.0 µM): 96%
per cent of control (MAPK12 (human); compound 10.0 µM): 72%
per cent of control (MAPK13 (human); compound 1.0 µM): 97%
per cent of control (MAPK13 (human); compound 10.0 µM): 73%
per cent of control (MAPKAPK2 (human); compound 1.0 µM): 96%
per cent of control (MAPKAPK2 (human); compound 10.0 µM): 94%
per cent of control (PAK4 (human); compound 1.0 µM): 88%
per cent of control (PAK4 (human); compound 10.0 µM): 28%
per cent of control (PAK6 (human); compound 1.0 µM): 80%
per cent of control (PAK6 (human); compound 10.0 µM): 38%
per cent of control (PIM2 (human); compound 1.0 µM): 110%
per cent of control (PIM2 (human); compound 10.0 µM): 36%
per cent of control (PLK1 (human); compound 1.0 µM): 89%
per cent of control (PLK1 (human); compound 10.0 µM): 47%
per cent of control (PRKCA (human); compound 1.0 µM): 13%
per cent of control (PRKCA (human); compound 10.0 µM): 9%
per cent of control (PRKCZ (human); compound 1.0 µM): 91%
per cent of control (PRKCZ (human); compound 10.0 µM): 51%
per cent of control (ROCK2 (rat); compound 1.0 µM): 105%
per cent of control (ROCK2 (rat); compound 10.0 µM): 77%
per cent of control (RPS6KA1 KD1 KD2 (human); compound 1.0 µM): 53%
per cent of control (RPS6KA1 KD1 KD2 (human); compound 10.0 µM): 19%
per cent of control ([1]; compound 1.0 µM): 80%
per cent of control ([1]; compound 10.0 µM): 50%
per cent of control ([2]; compound 1.0 µM): 85%
per cent of control ([2]; compound 10.0 µM): 69%
per cent of control (SRPK1 (human); compound 1.0 µM): 86%
per cent of control (SRPK1 (human); compound 10.0 µM): 63%
per cent of control (YES1 (human); compound 1.0 µM): -2%
per cent of control (YES1 (human); compound 10.0 µM): -8%
kinase still bound, per cent of control (DDR2 (human)): 11%
kinase still bound, per cent of control (DYRK1B (human)): 59%
kinase still bound, per cent of control (EPHA4 (human)): 36%
kinase still bound, per cent of control (FRK (human)): 12%
kinase still bound, per cent of control (HIPK3 (human)): 0.9%
kinase still bound, per cent of control (PKMYT1 (human)): 37%
kinase still bound, per cent of control (RIPK2 (human)): 0.8%
IC50 (PI4KA (human)): > 10 µM
IC50 (PI4KB (human)): 2.13 µM
IC50 (PIK3C2A (human)): 0.866 µM
IC50 (PIK3C2B (human)): 0.0829 µM
IC50 (PIK3C3 (human)): > 10 µM
